Among the data in patent US11358969B2, “Indole AHR inhibitors and uses thereof” (Ikena Oncology, Inc., priority 2017, dated 2022) are IC50 values, retold here.

Some results are limits rather than exact numbers.

This assay deals with T1, AHR (UniProt P35869).
T1 construct: IC50
T1 sequence (P35869 1-848): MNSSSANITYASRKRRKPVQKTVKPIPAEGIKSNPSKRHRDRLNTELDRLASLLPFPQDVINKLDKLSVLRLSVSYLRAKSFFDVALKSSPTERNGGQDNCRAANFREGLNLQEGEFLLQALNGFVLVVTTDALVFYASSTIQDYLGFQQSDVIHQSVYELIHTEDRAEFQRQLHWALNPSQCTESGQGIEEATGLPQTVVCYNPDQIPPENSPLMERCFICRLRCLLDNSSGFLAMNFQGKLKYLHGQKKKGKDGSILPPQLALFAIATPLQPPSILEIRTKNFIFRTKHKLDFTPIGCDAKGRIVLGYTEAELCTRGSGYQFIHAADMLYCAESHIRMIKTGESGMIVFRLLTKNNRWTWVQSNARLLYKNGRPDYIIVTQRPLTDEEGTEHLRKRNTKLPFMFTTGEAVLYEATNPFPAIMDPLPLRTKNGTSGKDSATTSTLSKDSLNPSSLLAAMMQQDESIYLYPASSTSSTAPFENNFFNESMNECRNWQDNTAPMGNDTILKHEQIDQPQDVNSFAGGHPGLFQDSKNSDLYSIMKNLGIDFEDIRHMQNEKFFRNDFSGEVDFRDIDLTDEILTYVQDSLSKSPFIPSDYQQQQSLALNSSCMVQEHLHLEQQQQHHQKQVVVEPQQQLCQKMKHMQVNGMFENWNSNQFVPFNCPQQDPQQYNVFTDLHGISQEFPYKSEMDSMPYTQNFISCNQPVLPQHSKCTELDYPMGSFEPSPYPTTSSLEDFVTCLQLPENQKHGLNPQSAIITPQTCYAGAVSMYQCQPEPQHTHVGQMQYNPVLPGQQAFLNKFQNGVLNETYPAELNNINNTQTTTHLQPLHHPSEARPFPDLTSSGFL
Description: DRE-Luciferase Reporter Assay (Example 1A). The conditions noted are these: cell line and AHR activating ligand not specified. In kind it is cell-based, murine or human. How it is done:
AHR binds to Dioxin Responsive Elements (DRE) upstream of genes that it activates. One measure of AHR activity is activation of a reporter gene, such as luciferase, downstream of one or multiple DRE elements. Luciferase activity will reflect activation and inhibition of AHR in the cells expressing his reporter.
Murine Hepa1-6 or Hepa-1c1c7 or other murine cell line with a DRE-luciferase reporter either stably or transiently transfected were plated in media in plates (96-well, 384-well or other plates) and incubated overnight at 37° C. in a CO2 incubator. Likewise, human HepG2 or other human cell line with a DRE-luciferase reporter either stably or transiently transfected were plated in media in plates (96-well, 384-well or other plates) and incubated overnight at 37° C. in a CO2 incubator.
The next day, an AHR activating ligand, such as TCDD, kynurenine, ITE (2-(1H-indole-3-ylcarbonyl)-4-thiazolecarboxylic methyl ester), VAF347, BNF (beta-naphthoflavone), FICZ (6-formylindolo(3,2-b) carbazole or other AHR ligands, was added with or without AHR antagonist.
Cells were incubated for 4, 15 or 24 hours or another time point and then lysed for determination of luciferase activity as a read-out of the AHR activation or inhibition. Luciferase was measured with a commercial kit such as the Promega Luciferase kit or any kit or reagents that provide the luciferin substrate for measuring luciferase activity. The level of luciferase with only activating ligand added was the maximum signal while the luciferase with no ligand was the minimum signal. IC50 values were determined as the concentration which inhibits half of the luciferase activity.

`CC(C)c1cnn2c(NCCc3c[nH]c4ccccc34)cc(-c3cncc(F)c3)nc12` [I-2, N-(2-(1H-indol-3-yl)ethyl)-5-(5-fluoropyridin-3-yl)-3-isopropylpyrazolo[1,5-a]pyrimidin-7-amine] registered an IC50 of less than 500 nM.
